Data reported in PMC10010340, “The Wnt Pathway Inhibitor RXC004 Blocks Tumor Growth and Reverses Immune Evasion in Wnt Ligand–dependent Cancer Models” (Cancer Research Communications, 2022).

Tests used:
[1] = tested on: colorectal cancer xenografts with RSPO3 translocations; set-up: method as in PMID 26257057; settings: cited from earlier work
HPAF-II cells = test: In vitro glucose uptake; assay type: cell-based, human; settings: Latrunculin A 500 nmol/L, 48 hours
Description: (§1) SNU-1411, HPAF-II, and HCT116 cells were treated in vitro for 48 hours with RXC004 (100 nmol/L), Latrunculin A (Abcam #ab144290; 500 nmol/L), or DMSO prior to analysis using the Glucose Uptake Glo Assay Kit (Promega #J1341). The ATPlite assay was used to control for cell viability, confirming RXC004 has no effect on proliferation at this 48 hours timepoint.

SNU-1411 cells = test: In vitro glucose uptake; assay type: cell-based, human; settings: SNU-1411, Latrunculin A 500 nmol/L, 48 hours
Description: as §1

HCT116 cells = test: In vitro glucose uptake; assay type: cell-based, human; settings: HCT116, Latrunculin A 500 nmol/L, 48 hours
Description: as §1

In the case of Cn1c(=O)c2c(ncn2CC(=O)Nc2ccc(-c3ccccc3)nn2)n(C)c1=O [ETC-159], the “duration of tumor regrowth suppression after withdrawal of treatment” value [1] is listed as “up to 6 weeks”.
For C/C1=C/C(=O)O[C@@H]2C[C@@H](CC[C@H](C)/C=C\C=C\CC1)O[C@@](O)([C@@H]1CSC(=O)N1)C2 [Latrunculin A, reference compound], the glucose uptake (HPAF-II cells) was “blocked glucose uptake”, the glucose uptake (SNU-1411 cells) was “blocked glucose uptake” and the glucose uptake (HCT116 cells) was “blocked glucose uptake”.
